# Tests used:
# pSTAT6 (pY641-STAT6) = target: T1, pSTAT6 (pY641-STAT6) (Homo sapiens, UniProt P42226); test: MSD-pSTAT-PBMC Assay (pSTAT6, IL-4 stimulated); type: cell-based; conditions: compound 3 hrs, then 1 ng/mL IL-4 for 10 min
# T1 construct: host or cells: cryopreserved PBMC
# T1 sequence (P42226 1-847): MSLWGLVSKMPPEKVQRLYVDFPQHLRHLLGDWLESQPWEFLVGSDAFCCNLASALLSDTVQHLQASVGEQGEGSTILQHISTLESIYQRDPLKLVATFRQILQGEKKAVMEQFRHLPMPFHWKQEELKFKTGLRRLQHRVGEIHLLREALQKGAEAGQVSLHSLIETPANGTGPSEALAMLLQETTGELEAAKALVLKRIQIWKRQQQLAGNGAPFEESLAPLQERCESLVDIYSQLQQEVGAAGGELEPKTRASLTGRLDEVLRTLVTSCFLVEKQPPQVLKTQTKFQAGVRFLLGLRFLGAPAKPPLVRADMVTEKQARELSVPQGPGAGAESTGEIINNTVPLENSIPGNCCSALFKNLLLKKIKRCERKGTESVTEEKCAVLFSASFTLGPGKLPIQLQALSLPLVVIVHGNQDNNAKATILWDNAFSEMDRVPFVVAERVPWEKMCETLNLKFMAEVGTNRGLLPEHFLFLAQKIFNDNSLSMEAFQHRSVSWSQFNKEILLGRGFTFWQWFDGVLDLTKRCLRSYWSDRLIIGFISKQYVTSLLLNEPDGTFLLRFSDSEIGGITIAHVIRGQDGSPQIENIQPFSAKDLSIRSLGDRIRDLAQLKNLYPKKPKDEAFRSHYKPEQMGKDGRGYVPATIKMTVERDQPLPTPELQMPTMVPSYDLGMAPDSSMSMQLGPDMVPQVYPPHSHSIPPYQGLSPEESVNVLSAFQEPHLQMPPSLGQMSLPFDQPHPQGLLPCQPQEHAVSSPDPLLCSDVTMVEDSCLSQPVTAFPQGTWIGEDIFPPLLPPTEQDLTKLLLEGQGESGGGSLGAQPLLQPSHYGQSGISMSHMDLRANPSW
# In short: (§1)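 Phospho-STAT levels captured on anti-STAT3 or anti-STAT6 plates and detected with anti-pY705 or anti-pY641 antibodies (MSD read-out). Cryopreserved human PBMCs received compound for 3 h before a 10 min pulse of IL-6 (10 ng/mL, STAT3) or IL-4 (1 ng/mL, STAT6). IC50 fitted after unstimulated-background subtraction and DMSO normalization.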
# pSTAT3 (pY705-STAT3) = target: T2, pSTAT3 (pY705-STAT3) (Homo sapiens, UniProt P40763); test: MSD-pSTAT-PBMC Assay (pSTAT3, IL-6 stimulated); type: cell-based; conditions: PBMC, compound 3 hrs, then 10 ng/mL IL-6 for 10 min; MSD pY705-STAT3; read-out: pSTAT3
# T2 construct: host or cells: cryopreserved PBMC
# T2 sequence (P40763 whole entry): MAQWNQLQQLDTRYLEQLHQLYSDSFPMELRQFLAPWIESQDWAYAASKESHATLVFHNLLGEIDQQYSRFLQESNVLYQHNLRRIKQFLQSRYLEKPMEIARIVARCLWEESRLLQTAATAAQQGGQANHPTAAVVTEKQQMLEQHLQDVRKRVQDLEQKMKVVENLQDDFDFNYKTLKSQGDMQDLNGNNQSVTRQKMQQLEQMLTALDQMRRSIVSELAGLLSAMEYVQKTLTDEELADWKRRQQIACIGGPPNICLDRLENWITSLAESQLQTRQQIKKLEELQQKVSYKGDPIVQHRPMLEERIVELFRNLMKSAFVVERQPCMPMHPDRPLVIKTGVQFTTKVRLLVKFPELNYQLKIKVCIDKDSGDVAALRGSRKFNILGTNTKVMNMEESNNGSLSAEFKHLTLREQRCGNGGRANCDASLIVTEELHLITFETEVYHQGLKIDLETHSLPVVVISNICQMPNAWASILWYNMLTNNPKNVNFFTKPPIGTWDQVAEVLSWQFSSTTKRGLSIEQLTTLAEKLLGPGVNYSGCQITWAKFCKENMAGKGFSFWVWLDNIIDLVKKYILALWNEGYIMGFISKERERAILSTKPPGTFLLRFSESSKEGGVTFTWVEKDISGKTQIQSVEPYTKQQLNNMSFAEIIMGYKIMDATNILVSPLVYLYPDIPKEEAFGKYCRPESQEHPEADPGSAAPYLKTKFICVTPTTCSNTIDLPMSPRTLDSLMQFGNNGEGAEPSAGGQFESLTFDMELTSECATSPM
# In short: as §1
Compound,IC50 (pSTAT6 (pY641-STAT6)) [nM],IC50 (pSTAT3 (pY705-STAT3)) [nM]
"CC(C)(C)C(=O)OCOP(=O)(OCOC(=O)C(C)(C)C)C(F)(F)c1ccc2sc(C(=O)N[C@H]3C[C@H]4C[C@H]4C[C@H]4CC[C@@H](C(=O)N5CC(c6ccccn6)C5)N4C3=O)cc2c1 [Compound 209, (((difluoro(2-(((3S,6S,7aR, 8aS,9aR)-5-oxo-3-(3-(pyridin-2-yl)azetidine-1-carbonyl)decahydro-1H-cyclopropa[d]pyrrolo[1,2-a]azocin-6-yl)carbamoyl)benzo[b]thiophen-5-yl)methyl)phosphoryl)bis(oxy)) bis(methylene) bis(2,2-dimethyl-propanoate)]",100 to 1000,< 100
CC(C)(C)C(=O)OCOP(=O)(OCOC(=O)C(C)(C)C)C(F)(F)c1ccc2sc(C(=O)N[C@H]3C[C@@H]4C[C@@H]4C[C@H]4CC[C@@H](C(=O)N5CC(n6ccnc6)C5)N4C3=O)cc2c1 [Compound 207],> 3000,< 100
"CC(C)(C)C(=O)SCCOP(=O)(Oc1ccccc1)C(F)(F)c1ccc2sc(C(=O)N[C@H]3C[C@H]4C[C@H]4C[C@H]4CC[C@@H](C(=O)N5CC(n6ccnc6)C5)N4C3=O)cc2c1 (stereo partly drawn) [Compound 195, S-(2-((((2-(((3S,6S,7aR, 8aS,9aR)-3-(3-(1H-imidazol-1-yl)azetidine-1-carbonyl)-5-oxodecahydro-1H-cyclopropa[d]pyrrolo[1,2-a]azocin-6-yl)carbamoyl)benzo[b]thiophen-5-yl)difluoromethyl) (phenoxy)phosphoryl)oxy)ethyl) 2,2-dimethyl-propanethioate]",> 3000,100 to 1000
"C[C@H](NP(=O)(Oc1ccccc1)C(F)(F)c1ccc2sc(C(=O)N[C@H]3C[C@@H]4C[C@@H]4C[C@H]4CC[C@@H](C(=O)N5CC(C(=O)N6CCOCC6)C5)N4C3=O)cc2c1)C(=O)OCc1ccccc1 (stereo partly drawn) [Compound 173, benzyl ((difluoro(2-(((3S,6S,7aS, 8aR,9aR)-3-(3-(morpholine-4-carbonyl)azetidine-1-carbonyl)-5-oxodecahydro-1H-cyclopropa[d]pyrrolo[1,2-a]azocin-6-yl)carbamoyl)benzo[b]thiophen-5-yl)methyl) (phenoxy)phosphoryl)-L-alaninate]",> 3000,1000 to 3000
"COCCCOC(=O)OCOP(=O)(OCOC(=O)OCCCOC)C(F)(F)c1ccc2sc(C(=O)N[C@H]3C[C@@H]4C[C@@H]4C[C@H]4CC[C@@H](C(=O)N5CC(C(=O)N6CCOCC6)C5)N4C3=O)cc2c1 [Compound 169, (((difluoro(2-(((3S,6S,7aS, 8aR,9aR)-3-(3-(morpholine-4-carbonyl)azetidine-1-carbonyl)-5-oxodecahydro-1H-cyclopropa [d]pyrrolo[1,2-a]azocin-6-yl)carbamoyl)benzo[b]thiophen-5-yl)methyl)phosphoryl)bis(oxy)) bis(methylene) bis(3-methoxypropyl) bis(carbonate)]",> 3000,100 to 1000
"CC(C)(C)OC(=O)OCOP(=O)(OCOC(=O)OC(C)(C)C)C(F)(F)c1ccc2sc(C(=O)N[C@H]3C[C@@H]4C[C@@H]4C[C@H]4CC[C@@H](C(=O)N5CC(C(=O)N6CCOCC6)C5)N4C3=O)cc2c1 [Compound 170, di-tert-butyl ((((difluoro(2-(((3S,6S,7aS, 8aR,9aR)-3-(3-(morpholine-4-carbonyl)azetidine-1-carbonyl)-5-oxodecahydro-1H-cyclopropa[d]pyrrolo[1,2-a]azocin-6-yl)carbamoyl)benzo[b]thiophen-5-yl)methyl)phosphoryl)bis(oxy))bis(methylene)) bis(carbonate)]",> 3000,1000 to 3000
"CC(C)(C)C(=O)OCOP(=O)(OCOC(=O)C(C)(C)C)C(F)(F)c1ccc2sc(C(=O)N[C@H]3C[C@H]4C[C@H]4C[C@H]4CC[C@@H](C(=O)N5CC(c6cccnc6)C5)N4C3=O)cc2c1 [Compound 187, (((difluoro(2-(((3S,6S,7aR, 8aS,9aR)-5-oxo-3-(3-(pyridin-3-yl)azetidine-1-carbonyl)decahydro-1H-cyclopropa[d]pyrrolo[1,2-a]azocin-6-yl)carbamoyl)benzo[b]thiophen-5-yl)methyl)phosphoryl)bis(oxy)) bis(methylene) bis(2,2-dimethyl-propanoate)]",100 to 1000,< 100
"COCCOC(=O)OCOP(=O)(OCOC(=O)OCCOC)C(F)(F)c1ccc2sc(C(=O)N[C@H]3C[C@@H]4C[C@@H]4C[C@H]4CC[C@@H](C(=O)N5CC(C(=O)N6CCOCC6)C5)N4C3=O)cc2c1 [Compound 172, (((difluoro(2-(((3S,6S,7aS, 8aR,9aR)-3-(3-(morpholine-4-carbonyl)azetidine-1-carbonyl)-5-oxodecahydro-1H-cyclopropa [d]pyrrolo[1,2-a]azocin-6-yl)carbamoyl)benzo[b]thiophen-5-yl)methyl)phosphoryl)bis(oxy)) bis(methylene) bis(2-methoxyethyl) bis(carbonate)]",> 3000,100 to 1000
"CC(C)CC(=O)SCCOP(=O)(OCCSC(=O)CC(C)C)C(F)(F)c1ccc2sc(C(=O)N[C@H]3C[C@H]4C[C@H]4C[C@H]4CC[C@@H](C(=O)N5CC(c6ncccn6)C5)N4C3=O)cc2c1 [Compound 225, S,S′-((((difluoro(2-(((3S,6S,7aR, 8aS,9aR)-5-oxo-3-(3-(pyrimidin-2-yl)azetidine-1-carbonyl)decahydro-1H-cyclopropa[d]pyrrolo[1,2-a]azocin-6-yl)carbamoyl)benzo[b]thiophen-5-yl)methyl)phosphoryl)bis(oxy))bis(ethane-2,1-diyl)) bis(3-methylbutane thioate)]",1000 to 3000,< 100
